From US4752612A, “Method and percutaneously administering physiologically active agents using an alcohol adjuvant and a solvent” (Nitto Electrical Industrial Co., Ltd., priority 1986, dated 1988)
Where a name gives a salt, the structure may show the parent alone. Read-outs that look alike come from different tables or passages of the source.

Assays:
rhesus monkey = assay: Pharmacological (behavioral) effect in animal model after percutaneous administration; assay type: in vivo; settings: blood level approximately 100 ng/ml plasma
[1] = Description: Rat full thickness skins were used in the diffusion cell method following the method of Michaels, AlChE Journal, 21 [5], 985-996, 1975. The rat skin was mounted in the diffusion cell in a vertical position between the upstream and the downstream compartments; the exposed area of the skin approximated 4.15 cm^2.
The skin was excised from the shaved abdominal site of male albino rats weighing 250~300 g, and washed with normal saline solution after the subcutaneous fat was carefully removed with scissors.
The active agent/PAEC solution of known concentration was added to the upper compartment of the cell, which was exposed to the epithelial side of the skin and a normal saline solution was placed in the lower compartment.
The penetration rate was studied in a thermostated bath at 30° C.
As an alternative, the finite dose technique of Franz, Curr. Probl. Dermatol., Vol. 7, p. 58~68 (Karger, Basel, 1978) can also be followed where the rat skin is mounted horizontally in a diffusion cell apparatus and the exposed area of the skin approximates 0.7 cm^2.
The active agent/PAEC solution of known concentration was added to the upstream compartment to which the epithelial side of the skin was exposed, and a normal saline solution was added to the downstream compartment.
Liquid compositions are prepared by firstly mixing Component A with Component B and then blending the active agent in the mixture. In the case that Component B is a solid at ambient temperature or will not homogenously mix with Component A, 20 wt.% of ethylene glycol monobutyl ether based on the weight of Components A and B can be used as an agent for assisting dissolution.
The flux of the active agent is given in terms of μg/cm^2 /8 hours. Twenty-five volume percent Component A with respect to Component A plus Component B volume was used in the composition along with 2.5 weight percent of the active agent. For purposes of comparison, in certain instances the results for solvents alone and adjuvants alone are given.
A propranolol system was formulated as follows: […] of propranolol was dissolved in 1 ml of 25 volume % dodecanol in N-methyl-2-pyrrolidone (based on total volume) and in 1 ml of ethyl alcohol as a comparison study.
In the following Example 8, in vitro transdermal penetration was again analyzed using rat full thickness skins following the method of Michaels, AIChE Journal, 21, [53], pp. 985-996 (1975), according to the procedure earlier described. The sample volume was 1 ml unless otherwise indicated and flux of the active agent is given in μg/cm^2 /8 hours. All percents are volume percents based on the total volume of the system unless otherwise indicated.

[2] = In vivo rhesus monkey test, plasma level after topical application; settings: for concentration at 3 h / concentration at 5 h / concentration at 7 h: topical
Protocol: If desired, an in vivo rhesus monkey test as described below may also be used to determine the effect of the PAEC combinations of the present invention.
Male rhesus monkeys weighing 10-14 Kg each can be used as the subject. An appropriate area of the monkey's chest is shaved 24 hours before drug application.
Drug formulations comprising the PAEC are applied to a certain area of the chest. The monkey is restrained in a chair to prevent it from touching its chest.
Blood samples are taken at appropriate intervals after the application. The heparinized blood is centrifuged, and the plasma removed and stored at -20° C. until analyzed.
In the following Examples 15 and 16, the in vivo monkey regimen earlier described was used to determine the effect of the PAEC combinations of the present invention, the regimen being modified as follows:
Male rhesus monkeys weighting 8 to 13 Kg wee used as the subject and an appropriate area of the monkey's upper back was shaved 24 hours before drug application;
the drug formulations were applied to 49 cm^2 of the upper back of the monkey; and
plasma samples taken at appropriate intervals were analyzed by conventional HPLC.
1 ml of 25% 1-dodecanol and 75% MP containing 200 mg of propanolol was impregnated into a polyester non-woven cloth (49 cm^2; 230 mg) and applied to the upper back area of the monkey.
The application site was occluded with Saran® film.
The procedure of Example 15 was followed except for using Indomethacin, a NSAID, in place of propranolol.

**Q.** For `CN1C(=O)CN=C(c2ccccc2)c2cc(Cl)ccc21` [Diazepam, 7-Chloro-1,3-dihydro-1-methyl-5-phenyl-2H-1,4-benzodiazepine-2-one], which “pharmacological (behavioral) signs of therapeutic effectiveness” value (rhesus monkey) is on record?
**A.** The value was “produces pharmacological (behavioral) signs of therapeutic effectiveness”.

**Q.** Which “flux (Ibuprofen)” value ([1]; (a) 25 mg + 1 ml of 25% 1-dodecanol and 75% N-methyl pyrrolidone) does the source give for `CC(C)Cc1ccc(C(C)C(=O)O)cc1` (stereo not drawn) [Ibuprofen, p-isobutylhydratropic acid<2',4'-isobutylphenyl propionic acid] here?
**A.** Its value is 307 μg/cm^2 /8 hours.

**Q.** What about the “flux (Ibuprofen)” value ([1]; (b) 25 mg + 1 ml of 25% 1-dodecanol in 75% N-methyl piperidone) of the same compound?
**A.** The value was 266 μg/cm^2 /8 hours.

**Q.** What about the “flux (Ibuprofen)” value ([1]; (c) 25 mg + 1 ml of 25% 1-dodecanol in 75% N-methyl caprolactum) of the same compound?
**A.** Its value is 148 μg/cm^2 /8 hours.

**Q.** With `COc1ccc2c(c1)c(CC(=O)O)c(C)n2C(=O)c1ccc(Cl)cc1` [Indomethacin, 1-(p-chlorobenzoyl)-5-methoxy-2-methylindole-3-acetic acid] as the compound, how does the “Plasma Level” value ([2]; rhesus monkey, in vivo, 60 min) read?
**A.** Its value is 0 ng/ml Plasma.

**Q.** What about the concentration at 3 h ([2]; rhesus monkey, in vivo) of the same compound?
**A.** Its concentration at 3 h is 270 ng/mL.

**Q.** What about the concentration at 5 h ([2]; rhesus monkey, in vivo) of the same compound?
**A.** Its concentration at 5 h is 495 ng/mL.

**Q.** What about the concentration at 7 h ([2]; rhesus monkey, in vivo) of the same compound?
**A.** The concentration at 7 h was 336 ng/mL.

**Q.** And the “flux (Indomethacin)” value ([1]; (a) 25 mg + 1 ml of 25% linalool and 75% MP)?
**A.** Its value is 98 μg/cm^2 /8 hours.

**Q.** And the “flux (Indomethacin)” value ([1]; (b) 25 mg + 1 ml of 25% 1-dodecanol and 75% MP)?
**A.** The value was 236 μg/cm^2 /8 hours.

**Q.** And the “flux (Indomethacin)” value ([1]; (c) 25 mg + 1 ml of 25% oleyl alcohol and 75% MP)?
**A.** The value was 236 μg/cm^2 /8 hours.

**Q.** For `CCN(CC)CCNC(=O)c1cc(Cl)c(N)cc1OC` [Metoclopramide (free base)], which Flux [1] is on record?
**A.** The Flux was 2694 μg/cm^2 /8 hrs.

**Q.** Which Flux [1] does the source give for `CCN(CC)CCNC(=O)c1cc(Cl)c(N)cc1OC` [Metoclopramide HCl] here?
**A.** The Flux was 3280 μg/cm^2 /8 hrs.

**Q.** What does the source list for `COC(=O)C1=C(C)NC(C)=C(C(=O)OC)C1c1ccccc1[N+](=O)[O-]` [Nifedipine, 1,4-dihydro-2,6-dimethyl-4-(2-nitrophenyl)-3,5-pyridine dicarboxylic acid dimethyl ester]?
**A.** flux (Nifedipine) ([1]; (a) 25 mg + 1 ml of 25% 1-dodecanol and 75% MP): 480 μg/cm^2 /8 hours; flux (Nifedipine) ([1]; (b) 25 mg + 1 ml of 25% oleyl alcohol and 75% MP): 394 μg/cm^2 /8 hours; flux (Nifedipine) ([1]; (c) 25 mg + 1 ml of 25% 2-octyl-1-dodecanol and 75% MP): 246 μg/cm^2 /8 hours; flux (Nifedipine) ([1]; (d) control: 25 mg + 1 ml of MP): 30 μg/cm^2 /8 hours

**Q.** For `CC(C)NCC(O)COc1cccc2ccccc12` (stereo not drawn) [Propranolol], which “Plasma Level” value ([2]; 1 hr, 200 mg in 1 ml of 25% 1-dodecanol and 75% MP, 49 cm^2 upper back, occluded) is on record?
**A.** The value was 0 ng/ml Plasma.

**Q.** What about the concentration at 3 h ([2]; rhesus monkey, plasma, 3 hr, 200 mg in 1 ml of 25% 1-dodecanol and 75% MP, 49 cm^2 upper back, occluded) of the same compound?
**A.** The concentration at 3 h was 55 ng/mL.

**Q.** And the concentration at 5 h ([2]; rhesus monkey, plasma, 5 hr, 200 mg in 1 ml of 25% 1-dodecanol and 75% MP, 49 cm^2 upper back, occluded)?
**A.** The concentration at 5 h was 85 ng/mL.

**Q.** And the concentration at 7 h ([2]; rhesus monkey, plasma, 7 hr, 200 mg in 1 ml of 25% 1-dodecanol and 75% MP, 49 cm^2 upper back, occluded)?
**A.** Its concentration at 7 h is 80 ng/mL.
